# Measured values as given in the supplement of paper PMC10307832.
# Legend:
# Experiment in all cases: relative viability (nuclei count vs DMSO), 5 days (fraction); higher = more cells survive
# Carboplatin + Alpelisib = compound: C1CC(C1)(C(=O)O)C(=O)O.[NH2-].[NH2-].[Pt+2] [Carboplatin] + Cc1nc(NC(=O)N2CCC[C@H]2C(N)=O)sc1-c1ccnc(C(C)(C)C(F)(F)F)c1 [Alpelisib] (partner 2 µM)
# Outline: (§1)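 Cells from lung cancer lines were seeded into 1536-well plates and, one day later, dosed by pin tool. Treatments were either a single drug or a fixed dose of an anchor drug with five library-drug doses (not always all listed) in √10 steps. After 5 days, nuclei were stained in a one-step fixation (final 0.05% Triton X-100, 1% formaldehyde, 1 ug/ml Hoechst) and counted on 4× images, and relative viability is the treated-to-vehicle nuclei ratio, as the median of duplicate plates.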
# Carboplatin + Dasatinib = compound: C1CC(C1)(C(=O)O)C(=O)O.[NH2-].[NH2-].[Pt+2] [Carboplatin] + Cc1nc(Nc2ncc(C(=O)Nc3c(C)cccc3Cl)s2)cc(N2CCN(CCO)CC2)n1 [Dasatinib] (partner 0.075 µM)
# Outline: as §1
# GSK126 + OSI-027 = compound: CC[C@H](C)N1C=C(C2=C(C=C(C=C21)C3=CN=C(C=C3)N4CCNCC4)C(=O)NCC5=C(C=C(NC5=O)C)C)C [GSK126] + COc1cccc2cc(-c3nc([C@H]4CC[C@H](C(=O)O)CC4)n4ncnc(N)c34)[nH]c12 [OSI-027] (partner 0.5 µM)
# Outline: as §1
# GSK126 + Pemetrexed = compound: CC[C@H](C)N1C=C(C2=C(C=C(C=C21)C3=CN=C(C=C3)N4CCNCC4)C(=O)NCC5=C(C=C(NC5=O)C)C)C [GSK126] + Nc1nc2[nH]cc(CCc3ccc(C(=O)N[C@@H](CCC(=O)O)C(=O)O)cc3)c2c(=O)[nH]1 [Pemetrexed] (partner 0.2 µM)
# Outline: as §1
Cell Line,relative viability (Carboplatin + Alpelisib; first compound 0.08 µM),relative viability (Carboplatin + Alpelisib; first compound 0.253 µM),relative viability (Carboplatin + Alpelisib; first compound 0.8 µM),relative viability (Carboplatin + Alpelisib; first compound 2.53 µM),relative viability (Carboplatin + Alpelisib; first compound 8 µM),relative viability (Carboplatin + Dasatinib; first compound 0.08 µM),relative viability (Carboplatin + Dasatinib; first compound 0.253 µM),relative viability (Carboplatin + Dasatinib; first compound 0.8 µM),relative viability (Carboplatin + Dasatinib; first compound 2.53 µM),relative viability (Carboplatin + Dasatinib; first compound 8 µM),relative viability (GSK126 + OSI-027; first compound 0.08 µM),relative viability (GSK126 + OSI-027; first compound 0.253 µM),relative viability (GSK126 + OSI-027; first compound 0.8 µM),relative viability (GSK126 + OSI-027; first compound 2.53 µM),relative viability (GSK126 + OSI-027; first compound 8 µM),relative viability (GSK126 + Pemetrexed; first compound 0.08 µM),relative viability (GSK126 + Pemetrexed; first compound 0.253 µM),relative viability (GSK126 + Pemetrexed; first compound 0.8 µM),relative viability (GSK126 + Pemetrexed; first compound 2.53 µM),relative viability (GSK126 + Pemetrexed; first compound 8 µM)
NCI-H358,1.14,0.881,0.845,0.824,0.671,0.162,0.171,0.163,0.178,0.18,1,0.85,0.812,0.904,0.897,0.184,0.182,0.174,0.166,0.197
NCI-H1944,0.98,0.857,0.813,0.701,0.643,0.235,0.206,0.226,0.22,0.174,0.456,0.423,0.423,0.369,0.449,0.719,0.641,0.607,0.654,0.567
NCI-H1755,0.928,0.894,0.97,0.932,0.894,0.451,0.441,0.395,0.462,0.452,0.747,0.725,0.75,0.8,0.689,0.401,0.483,0.402,0.403,0.36
A-427,1.14,1.09,1.02,1.05,1.06,0.728,0.772,0.716,0.704,0.657,0.491,0.515,0.43,0.409,0.456,1.03,0.937,1.03,1.08,0.991
